Laboratory results as given in patent US8772493B2, “Compounds having auditory protective effect” (Ajou University Industry-Academic Cooperation Foundation, priority 2010, dated 2014).

Columns and labels:
HEI-OC1 = assay: MTT assay in auditory cells HEI-OC1; type: cell-based
Procedure: (§1) HEI-OC1 and UB-OC1 as auditory cells were subjected to MTT assay. Auditory cell lines were seeded on a 96-well plate in the ratio of 2×10^3 cells/well, and then cultured in an incubator under the condition of 37° C., 5% CO2 for 2 days. The compounds of Examples 1 and 2 were used at various concentrations with operating 5 runs for each sample, and then cultured in the incubator for 16 hours. The plate was treated with 1 mg/ml MTT solution per well, and then cultured in the incubator for 4 hours. Then, 100 μl DMSO per well was used to dissolve formazan, and the optical density of formazan as dissolved was measured at 540 nm.

UB-OC1 = assay: MTT assay in auditory cells UB-OC1; type: cell-based
Procedure: as §1

[1] = tested on: JNK, p38, cleaved caspase 3, PARP in HEI-OC1; assay: Western blotting of apoptosis-related proteins; type: cell-based; settings: cisplatin plus compound
zebrafish neuromast = assay: Scanning and transmission electron microscopy of zebrafish neuromast; type: in vivo, Danio rerio; settings: 50 μM cisplatin, combined use of compound
Description: They were dried with a drier, treated with an evaporator (MED010; Baltec, Hudson, N.H.), and then observed using a scanning microscope (JSM-6700F JEOL, Tokyo, Japan).
Larvae were cut in the direction from head to tail, sliced to a thickness of […], and then stained with 1% toluidine blue. They were divided into ultrathin sections (90 nm) using Ultracut S microtome (Leica, Wetzlar, Germany), mounted on 200-mesh Athene thin bar-grids, treated with uranyl acetate and lead citrate, and then observed using s transmission electron microscope (EM 902A Carl Zeiss).

HEI-OC1 cells = assay: Measurement of intracellular ROS generation (DCFDA); type: cell-based; settings: 50 μM cisplatin plus compound (100 μg/ml), 16 h
Procedure: Intracellular generation of ROS was quantified using 5-(and 6)-carboxyl-20,70-dichlorodihydro fluorescein diacetate (DCFDA; Molecular Probes, Eugene, Oreg., USA). […] ROS generation at various time points was checked and the amount of ROS generation was the highest at 16 h. Therefore, 16 h as the time point for ROS detection was chosen for subsequent experiments. Cells were incubated in the dark with 10 μM DCFDA in serum-free medium for 10 min at 33° C. The oxidative burst (hydrogen peroxide, H2O2) was detected using a FACScan flow cytometer (Becton Dickinson, Franklin Lakes, N.J., USA) with excitation and emission settings at 488 and 530 nm, respectively.

With `NC1(c2ccc(F)cc2)C(=O)Nc2ccccc2C1=O` (stereo not shown) [Example 1, 3-amino-3-(4-fluorophenyl)quinolin-2,4(1H,3H)-dione] the “cisplatin-induced apoptosis of auditory hair cells (MTT)” value (HEI-OC1; HEI-OC1, 50 of cisplatin plus compound, as the dose of the compound increases) was “statistically significantly inhibited”, the “cytotoxicity in auditory hair cells (MTT)” value (HEI-OC1; HEI-OC1, compound alone, up to elevated dose of 200) was “substantially no cytotoxicity” and the “cisplatin-induced apoptosis of auditory hair cells (MTT)” value (UB-OC1; UB-OC1, 50 of cisplatin plus compound, as the dose of the compound increases) was “statistically significantly inhibited”. The “cytotoxicity in auditory hair cells (MTT)” value (UB-OC1; UB-OC1, compound alone, up to elevated dose of 200) was “substantially no cytotoxicity”, the “cisplatin-induced JNK, p38, cleaved caspase 3, PARP” value [1] was “effectively inhibited” and the “damage of kinocilium and stereocilia caused by cisplatin (SEM, TEM)” value (zebrafish neuromast) was “inhibited the damage of kinocilium and stereocilia”. The “cisplatin-induced intracellular ROS generation” value (HEI-OC1 cells) was “significantly inhibited”.
